41 molecules from patent US9914739B2, “6H-furo[2,3-E]indole compounds for the treatment of hepatitis C” (BRISTOL-MYERS SQUIBB COMPANY, priority 2014, dated 2018) can be followed below.

Some results are limits rather than exact numbers.

This assay relates to genotype 1b (Con-1) HCV replicon. The experiment in a line: HCV replicon luciferase assay, genotype 1b. Type of assay: cell-based. Particulars: Hepatitis C virus, Huh-7, 72 h, Huh-7 cells with genotype 1b HCV replicon, Renilla luciferase, 3 days incubation. How it is done:
The cell lines used to evaluate compounds consist of a human hepatocyte derived cell line (Huh-7) that constitutively expresses a genotype 1b (Con-1) HCV replicon or a genotype 1b (Con-1) HCV replicon with an asparagine replacing the cysteine at amino acid 316, or a genotype 2a (JFH-1) replicon, containing a Renilla luciferase reporter gene. These cells were maintained in Dulbecco's modified Eagle medium (DMEM) containing 10% FBS, 100 U/mL penicillin/streptomycin and 1.0 mg/mL G418.
To evaluate compound efficacy, titrated compounds were transferred to sterile 384-well tissue culture treated plates, and the plates were seeded with HCV replicon cells (50 μL at a density of 2.4×10^3 cells/well) in DMEM containing 4% FBS (final DMSO concentration at 0.5%). After 3 days incubation at 37° C., cells were analyzed for Renilla Luciferase activity using the EnduRen substrate (Promega cat #E6485) according to the manufacturer's directions. Briefly, the EnduRen substrate was diluted in DMEM and then added to the plates to a final concentration of 7.5 μM. The plates were incubated for at least 1 h at 37° C. then read on a Viewlux Imager (PerkinElmer) using a luminescence program. The 50% effective concentration (EC50) was calculated using the four-parameter logistic formula noted above.
(Replicon systems follow genome replication, usually without infectious particles.)

A word on the EC50: it is the midpoint of the concentration-response curve. Low readings indicate greater potency, high ones weaker potency. Take `CCOC(=O)c1c(-c2ccc(F)cc2)oc2c1cc(OC(C)C)c1[nH]ccc12` [Compound 1001, ethyl 2-(4-fluorophenyl)-5-isopropoxy-6H-furo[2,3-e]indole-3-carboxylate]: under “class symbol”, the EC50 was over 1 µM.

For `CNC(=O)c1c(-c2ccc(F)cc2)oc2c1cc(OC(C)C)c1[nH]ccc12` [Compound 1002, 2-(4-fluorophenyl)-5-isopropoxy-N-methyl-6H-furo[2,3-e]indole-3-carboxamide], the EC50 (class symbol) is over 1 µM.

Take `CNC(=O)c1c(-c2ccc(F)cc2)oc2c1cc(-c1cccc(C(=O)OC)c1)c1[nH]ccc12` [Compound 1003]: the EC50 reads like this: (class symbol) over 1 µM; (numeric value) 1.46 µM.

As to `CNC(=O)c1c(-c2ccc(F)cc2)oc2c1cc(-c1cccc(C(=O)OC(C)(C)C)c1)c1[nH]ccc12` [Compound 1004, tert-butyl 3-(2-(4-fluorophenyl)-3-(methylcarbamoyl)-6H-furo[2,3-e]indol-5-yl)benzoate], the EC50 (class symbol) lay in the range of 0.1 to 1 µM.

As for `CNC(=O)c1c(-c2ccc(F)cc2)oc2c1cc(-c1cccc(C(=O)NC(C)(C)C)c1)c1[nH]ccc12` [Compound 1005, 5-(3-(tert-butylcarbamoyl)phenyl)-2-(4-fluorophenyl)-N-methyl-6H-furo[2,3-e]indole-3-carboxamide], the EC50 runs as follows: (class symbol) under 0.1 µM; (numeric value) 0.05 µM.

In the case of `CNC(=O)c1c(-c2ccc(F)cc2)oc2c1cc(-c1cccc(C(=O)NC(C)(C)C)c1)c1[nH]cc(C)c12` [Compound 1006], the EC50 (class symbol) fell in the range of 0.1 to 1 µM and the EC50 (numeric value) amounted to 0.51 µM.

`CNC(=O)c1c(-c2ccc(F)cc2)oc2c1cc(-c1cccc(C(=O)NC(C)(C)C)c1)c1[nH]c(-c3ccccc3)cc12` [Compound 1007] showed an EC50 (class symbol) of 0.1 to 1 µM.

For the molecule `CNC(=O)c1c(-c2ccc(F)cc2)oc2c1cc(-c1cccc(C(=O)NC(C)(C)C)c1)c1[nH]c(C)cc12` [Compound 1008], the EC50 (class symbol) was in the range of 0.1 to 1 µM.

Molecule `CNC(=O)c1c(-c2ccc(F)cc2)oc2c1cc(-c1ccc(OC)c(C(=O)NCC(F)(F)C(F)(F)C(F)(F)F)c1)c1[nH]ccc12` [Compound 1009] gave a half-maximal effective concentration (EC50) (class symbol) of under 0.1 µM.

`CNC(=O)C(=O)c1c[nH]c2c(OC(C)C)cc3c(C(=O)NC)c(-c4ccc(F)cc4)oc3c12` [Compound 2001] returned an EC50 (class symbol) of over 1 µM.

For `CNC(=O)c1c(-c2ccc(F)cc2)oc2c1cc(OC(C)C)c1[nH]cc(C(=O)C(=O)O)c12` [Compound 2002], the concentration giving a half-maximal response (EC50) (class symbol) was over 1 µM.

For the molecule `CNC(=O)c1c(-c2ccc(F)cc2)oc2c1cc(-c1cccc(C(=O)NC(C)(C)C)c1)c1[nH]cc(C(=O)C(=O)OC)c12` [Compound 2003, methyl 2-(5-(3-(tert-butylcarbamoyl)phenyl)-2-(4-fluorophenyl)-3-(methylcarbamoyl)-6H-furo[2,3-e]indol-8-yl)-2-oxoacetate], the EC50 was 0.1 to 1 µM (class symbol) and 0.44 µM (numeric value).

Under “class symbol”, `CNC(=O)c1c(-c2ccc(F)cc2)oc2c1cc(-c1cccc(C(=O)NC(C)(C)C)c1)c1[nH]cc(C(=O)C(=O)O)c12` [Compound 2004, 2-(5-(3-(tert-butylcarbamoyl)phenyl)-2-(4-fluorophenyl)-3-(methylcarbamoyl)-6H-furo[2,3-e]indol-8-yl)-2-oxoacetic acid] displayed an EC50 of over 1 µM.

Take `CNC(=O)C(=O)c1c[nH]c2c(-c3cccc(C(=O)NC(C)(C)C)c3)cc3c(C(=O)NC)c(-c4ccc(F)cc4)oc3c12` [Compound 2005]: the EC50 (class symbol) is over 1 µM and the EC50 (numeric value) is 5.16 µM.

For the setting “class symbol”, `CNC(=O)c1c(-c2ccc(F)cc2)oc2c1cc(-c1cccc(C(=O)NC(C)(C)C)c1)c1[nH]cc(C(=O)C(=O)N(C)C)c12` [Compound 2006] registered an EC50 of over 1 µM.

Where the note is “class symbol”, `CNC(=O)c1c(-c2ccc(F)cc2)oc2c1cc(-c1cccc(C(=O)O)c1)c1[nH]ccc12` [Compound 3001, 3-(2-(4-fluorophenyl)-3-(methylcarbamoyl)-6H-furo[2,3-e]indol-5-yl)benzoic acid] returned an EC50 of over 1 µM.

For `CNC(=O)c1c(-c2ccc(F)cc2)oc2c1cc(-c1cccc(C(=O)O)c1)c1c2ccn1C(=O)C(F)(F)F` [Compound 3002, 3-(2-(4-fluorophenyl)-3-(methylcarbamoyl)-6-(2,2,2-trifluoroacetyl)-6H-furo[2,3-e]indol-5-yl)benzoic acid], the EC50 (class symbol) was over 1 µM.

For the molecule `CNC(=O)c1c(-c2ccc(F)cc2)oc2c1cc(-c1cccc(C(=O)NC(C)(C)C)c1)c1c2ccn1C(=O)C(F)(F)F` [Compound 3003], the EC50 reads like this: (class symbol) 0.1 to 1 µM; (numeric value) 0.2 µM.

Molecule `CNC(=O)c1c(-c2ccc(F)cc2)oc2c1cc(-c1cccc(C(=O)NCC(C)(C)C)c1)c1[nH]ccc12` [Compound 4001, 2-(4-fluorophenyl)-N-methyl-5-(3-(neopentylcarbamoyl)phenyl)-6H-furo[2,3-e]indole-3-carboxamide] gave an EC50 (class symbol) of under 0.1 µM and an EC50 (numeric value) of 0.083 µM.

Where the note is “class symbol”, `CNC(=O)c1c(-c2ccc(F)cc2)oc2c1cc(-c1cccc(C(=O)NC34CC(C3)C4)c1)c1[nH]ccc12` [Compound 4002] yielded an EC50 of under 0.1 µM.

Turning to `CNC(=O)c1c(-c2ccc(F)cc2)oc2c1cc(-c1cccc(C(=O)NC(C)(C)CCO)c1)c1[nH]ccc12` [Compound 4003], the EC50 (class symbol) is under 0.1 µM.

As for `CNC(=O)c1c(-c2ccc(F)cc2)oc2c1cc(-c1cccc(C(=O)NC(C)(C)C(=O)OC)c1)c1[nH]ccc12` [Compound 4004], the EC50 (class symbol) was under 0.1 µM.

As to `CNC(=O)c1c(-c2ccc(F)cc2)oc2c1cc(-c1cccc(C(=O)NCC(C)(F)F)c1)c1[nH]ccc12` [Compound 4005], the concentration giving a half-maximal response (EC50) was 0.1 to 1 µM (class symbol) and 0.15 µM (numeric value).

As to `CNC(=O)c1c(-c2ccc(F)cc2)oc2c1cc(-c1cccc(C(=O)NC3(c4ncccn4)CC3)c1)c1[nH]ccc12` [Compound 4006], the EC50 (class symbol) is under 0.1 µM.

Take `CNC(=O)c1c(-c2ccc(F)cc2)oc2c1cc(-c1cccc(C(=O)NCC(F)(F)C(F)(F)C(F)(F)F)c1)c1[nH]ccc12` [Compound 4007]: the EC50 reads like this: (class symbol) under 0.1 µM; (numeric value) 0.049 µM.

Turning to `CNC(=O)c1c(-c2ccc(F)cc2)oc2c1cc(-c1cccc(C(=O)NCC(C)(C)CO)c1)c1[nH]ccc12` [Compound 4008], the EC50 is, setting by setting: (class symbol) 0.1 to 1 µM; (numeric value) 0.13 µM.

Regarding `CNC(=O)c1c(-c2ccc(F)cc2)oc2c1cc(-c1cccc(C(=O)NCC(C)(C)c3ccc(Cl)cc3)c1)c1[nH]ccc12` [Compound 4009, 5-(3-((2-(4-chlorophenyl)-2-methylpropyl)carbamoyl)phenyl)-2-(4-fluorophenyl)-N-methyl-6H-furo[2,3-e]indole-3-carboxamide], the EC50 (class symbol) was in the range of 0.1 to 1 µM.

Regarding `CNC(=O)c1c(-c2ccc(F)cc2)oc2c1cc(-c1cccc(C(=O)NC(C)(C)c3ccc(Cl)cc3)c1)c1[nH]ccc12` [Compound 4010], the EC50 was under 0.1 µM (class symbol) and 0.027 µM (numeric value).

As for `CNC(=O)c1c(-c2ccc(F)cc2)oc2c1cc(-c1cccc(C(=O)NCC3(CO)CCC3)c1)c1[nH]ccc12` [Compound 4011], the EC50 (class symbol) was 0.1 to 1 µM.

Molecule `CNC(=O)c1c(-c2ccc(F)cc2)oc2c1cc(-c1cccc(C(=O)NC3(C(=O)OC)CCC3)c1)c1[nH]ccc12` [Compound 4012] yielded an EC50 (class symbol) of 0.1 to 1 µM.

As to `C#CC(C)(C)NC(=O)c1cccc(-c2cc3c(C(=O)NC)c(-c4ccc(F)cc4)oc3c3cc[nH]c23)c1` [Compound 4013], the EC50 (class symbol) is under 0.1 µM.

Turning to `CNC(=O)c1c(-c2ccc(F)cc2)oc2c1cc(-c1cccc(C(=O)NCC(C)(C)c3ccccc3)c1)c1[nH]ccc12` [Compound 4016], the EC50 (class symbol) was in the range of 0.1 to 1 µM.

For `C#CC1(NC(=O)c2cccc(-c3cc4c(C(=O)NC)c(-c5ccc(F)cc5)oc4c4cc[nH]c34)c2)CCCCC1` [Compound 4017], the EC50 (class symbol) fell in the range of 0.1 to 1 µM.

Take `C#CC(CC)(CC)NC(=O)c1cccc(-c2cc3c(C(=O)NC)c(-c4ccc(F)cc4)oc3c3cc[nH]c23)c1` [Compound 4018]: the concentration giving a half-maximal response (EC50) (class symbol) was under 0.1 µM.

Consider `C#CC(C)(CC)NC(=O)c1cccc(-c2cc3c(C(=O)NC)c(-c4ccc(F)cc4)oc3c3cc[nH]c23)c1` (centres unmarked) [Compound 4019], for which the EC50 (class symbol) is 0.1 to 1 µM.

As for `CNC(=O)c1c(-c2ccc(F)cc2)oc2c1cc(-c1cccc(C(=O)NCC(F)(F)c3ccccn3)c1)c1[nH]ccc12` [Compound 4020], under “class symbol”, the EC50 lay within 0.1 to 1 µM.

`C#CC(C)NC(=O)c1cccc(-c2cc3c(C(=O)NC)c(-c4ccc(F)cc4)oc3c3cc[nH]c23)c1` (centres unmarked) [Compound 4021] registered an EC50 (class symbol) of 0.1 to 1 µM.

On to `CNC(=O)c1c(-c2ccc(F)cc2)oc2c1cc(-c1cccc(C(=O)NC(C)(C)C#N)c1)c1[nH]ccc12` [Compound 4022], for which the EC50 is under 0.1 µM (class symbol) and 0.015 µM (numeric value).

In the case of `CNC(=O)c1c(-c2ccc(F)cc2)oc2c1cc(OC(C)C)c1c2ccn1S(C)(=O)=O` [Compound 5001, 2-(4-fluorophenyl)-5-isopropoxy-N-methyl-6-(methylsulfonyl)-6H-furo[2,3-e]indole-3-carboxamide], where the note is “class symbol”, the EC50 was over 1 µM.

As for `CNC(=O)c1c(-c2ccc(F)cc2)oc2c1cc(-c1cccc(C(=O)NC(C)(C)C)c1)c1c2ccn1S(C)(=O)=O` [Compound 5002], the EC50 (class symbol) was under 0.1 µM.

Take `CNC(=O)c1c(-c2ccc(F)cc2)oc2c1cc(-c1cccc(C(=O)NC(C)(C)C)c1)c1c2c(C)cn1S(C)(=O)=O` [Compound 5003]: the EC50 (class symbol) was over 1 µM.
